# Legend:
# [1] = test system: Human embryonic stem cell H9 lines carrying MYH6-mCherry reporters; assay: hESC cardiogenesis assay; assay type: cell-based; conditions: hESCs, dose-response behaviour
# [2] = Chemical stability in phosphate buffer; assay type: physicochemical; conditions: 10 μM, phosphate buffer pH 7.4, up to 30 hours, HPLC
# [3] = test system: β-catenin-dependent canonical Wnt pathway; assay: Wnt inhibition assay; assay type: cell-based, human; conditions: Homo sapiens, HEK-293T, Wnt inhibition, HEK293T cells
degradation in phosphate buffer [2],IC50 [3],Compound,induction of cardiogenesis (class in words) [1]
No degradation was observed,,"CC(=O)c1ccccc1NC(=O)[C@H]1CC[C@H](N2C(=O)[C@@H]3[C@@H]4CC[C@@H](C4)[C@@H]3C2=O)CC1 [Compound 28, 4-(cis-endo-1,3-Dioxooctahydro-2H-4,7-methanoisoindol-2-yl)-N-(2-acetylphenyl)-trans-cyclohexyl carboxamide]",potent stimulators of cardiogenesis
No degradation was observed,~100 nM,"O=C1[C@@H]2[C@@H]3CC[C@@H](C3)[C@@H]2C(=O)N1[C@H]1CC[C@H](C(=O)Nc2cccnc2)CC1 [Compound 32, 4-(cis-endo-(1,3-Dioxooctahydro-2H-4,7-methanoisoindol-2-yl))-N-(pyridin-3-yl)-trans-cyclohexyl carboxamide]",functionally inactive as inducers of cardiogenesis

# Source: publication PMC3335202 (Journal of Medicinal Chemistry, 2012)
